Target: T1, SNAP-PDK1 (Homo sapiens, UniProt O15530)
T1 construct: SNAP-PDK1_50-556 (15 μM, in buffer Tris-HCl 50 mM pH 7.4); His (N); made in house; host or cells: insect cells
T1 sequence (O15530 50-556): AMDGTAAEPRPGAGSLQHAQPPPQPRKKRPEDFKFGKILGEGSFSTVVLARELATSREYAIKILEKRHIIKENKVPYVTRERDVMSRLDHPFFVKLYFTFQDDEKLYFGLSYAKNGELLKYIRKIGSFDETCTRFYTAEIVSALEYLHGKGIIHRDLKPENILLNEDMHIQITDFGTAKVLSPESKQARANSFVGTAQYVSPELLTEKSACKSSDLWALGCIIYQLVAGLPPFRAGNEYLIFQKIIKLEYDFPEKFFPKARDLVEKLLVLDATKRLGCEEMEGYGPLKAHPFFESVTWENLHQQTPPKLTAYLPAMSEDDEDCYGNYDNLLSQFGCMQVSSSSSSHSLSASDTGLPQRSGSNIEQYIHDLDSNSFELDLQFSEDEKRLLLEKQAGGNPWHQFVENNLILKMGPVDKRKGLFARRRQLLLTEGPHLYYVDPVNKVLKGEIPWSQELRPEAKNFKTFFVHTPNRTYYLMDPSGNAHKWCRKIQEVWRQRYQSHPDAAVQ
Assay: STORM-based single particle fluorescence of PDK1 monomers and dimers
Details: 15 μM HYG8
Experimental: SNAP-PDK1_50-556 (15 μM, in buffer Tris-HCl 50 mM pH 7.4, 200 mM NaCl, 200 mM imidazole and 1 mM DTT) was incubated with SNAP-Cell TMR-Star substrate (NEB) (30 μM) in the dark at room temperature for 1 h. Labelled SNAP-PDK1 was isolated by gel filtration using a PD MidiTrap G-25 Sephadex Column (GE). 10 μl labelled TMR-SNAP-PDK1 was diluted in buffer 50 mM Tris-HCl 50 mM pH 7.4 containing 100 mM NaCl and 1 mM DTT (control) or in the same buffer containing 15 μM HYG8 in a final volume of 20 μl. […] The slides were analysed using stochastic optical reconstruction microscopy (STORM) technology. Fluorescence from monomers was differentiated from that from dimers by the intensity of the fluorescence signals. […]
The STORM microscope used was custom-built around an OlympusIX-73 inverted microscope, as described previously ([96]). A 532 nm 1.5 W laser (Laser Quantum Ventus 532) was used for fluorescence excitation of TMR-Star. […] Images were recorded by an EMCCD camera (Andor iXon3 897). […] After calibration, the parameters selected in the STORM’s software were: shape, two color 120X; view, single; horizontal readout rate, 5.0 MHz; speed, 3.3 μs; clock voltage, normal; frame transfer mode, (select); set exposure time, 100 ms, real exposure time, 100 ms; real accumulation time, 102 ms; effective frame rate, 9.38 Hz; pre amplifier gain 5.1; electron multiplier gain, 30; laser power, 5 mW. […]

effect on proportion of PDK1 dimers: decreased the proportion of PDK1 dimers
SMILES: O=C(O[C@H]1[C@@H](OP(=O)(O)O)[C@H](OP(=O)(O)O)[C@@H](OP(=O)(O)O)[C@H](OP(=O)(O)O)[C@H]1OP(=O)(O)O)c1ccccc1 [HYG8, 2-O-benzoyl-IP5]
